As usually defined, the IC50 is the concentration that gives 50% inhibition.

The experiment deals with BACE1 (recombinant β-secretase enzyme) (Homo sapiens (Human), UniProt P56817). Description: AnaSpec BACE1 fluorescent assay (beta-secretase activity assay). Type of experiment: biochemical. On the procedure: A BACE1 activity assay kit from AnaSpec (Fremont, Calif.) was used to determine the potency of the selected BACE1 inhibitors by AnaSpec BACE1 fluorescent assay. The recombinant β-secretase enzyme was diluted 1:200 in 1× assay buffer (1 part of 1× assay buffer and 1 part of TBS containing 0.1% Tween 20). The enzyme was added in a volume of 40 μl to each well of a black 96-well micro plate.
Sequence of BACE1 (recombinant β-secretase enzyme) (P56817 46-501): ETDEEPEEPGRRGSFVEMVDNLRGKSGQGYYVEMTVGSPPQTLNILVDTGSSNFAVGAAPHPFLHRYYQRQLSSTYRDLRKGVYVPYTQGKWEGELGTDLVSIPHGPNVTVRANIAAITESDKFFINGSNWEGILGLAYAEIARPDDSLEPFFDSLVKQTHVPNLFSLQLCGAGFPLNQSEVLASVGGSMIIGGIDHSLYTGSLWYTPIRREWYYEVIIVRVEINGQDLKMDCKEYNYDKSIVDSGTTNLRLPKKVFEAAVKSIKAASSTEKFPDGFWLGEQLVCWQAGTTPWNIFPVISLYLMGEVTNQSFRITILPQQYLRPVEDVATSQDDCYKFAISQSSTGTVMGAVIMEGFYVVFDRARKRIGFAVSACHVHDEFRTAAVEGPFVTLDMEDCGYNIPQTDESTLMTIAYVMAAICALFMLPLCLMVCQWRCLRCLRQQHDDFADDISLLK
The BACE1 inhibitors were serially diluted into DMSO from their 10 mM stock concentrations in DMSO. The serially diluted inhibitors were diluted 1:100 into 1× assay buffer in a 96-well polypropylene plate (assay dilution plate). The final concentration of the BACE1 inhibitor tested was 300 nM, 100 nM, 30 nM, 10 nM, 3 nM, 1 nM 0.3 nM, and 0.00 nM. Dose responses for inhibitors were run in duplicate.
A volume of 10 μl of the inhibitor from the assay dilution plate, a control inhibitor LY2886721 or inhibitor vehicle was then added to each well of the black 96-well micro plate containing BACE1.
To each well of the black 96-well micro plate, 50 μl of the β-secretase substrate (Hylite Fluor 488) diluted 1:100 using assay buffer was added. The reagents were mixed gently and the assay plate was placed into a POLARstar fluorescent plate reader with excitation wavelength set at 485 nm and the emission wavelength set at 520 nm. The plate reader was set to take readings every 5 minutes for up to 30 minutes or a 30 minute endpoint reading was used.
An appropriate integrated first-order rate equation was used to fit the data accumulated over a 30-40 minute collection period.
Turning to `CC#Cc1ccc2sc3ccc([C@]4(C5CC5)CC(=O)N(C)C(=N)N4)cc3c2c1` [Example 99, (R)-6-Cyclopropyl-2-imino-3-methyl-6-(8-(prop-1-yn-1-yl)dibenzo[b,d]thiophen-2-yl)tetrahydropyrimidin-4(1H)-one], the IC50 is greater than 0.3 µM.
To `CC#Cc1ccc2sc3ccc([C@]4(C)CN(C)C(=O)C(=N)N4)cc3c2c1` [Example 115, (R)-3-Imino-1,5-dimethyl-5-(8-(prop-1-yn-1-yl)dibenzo[b,d]thiophen-2-yl) piperazin-2-one] belongs greater than 0.3 µM; to `CCCc1ccc2sc3ccc([C@]4(C)CC(=O)N(C)C(=N)N4)cc3c2c1` [Example 89, (S)-2-Imino-3,6-dimethyl-6-(8-propyl-dibenzo[b,d]thiophen-2-yl)tetrahydro-pyrimidin-4(1H)-one], greater than 0.3 µM; to `CC#Cc1ccc2sc3ccc([C@@]4(C)NC(=N)OCC4(F)F)cc3c2c1` [Example 100, (R)-5,5-Difluoro-4-methyl-4-(8-(prop-1-yn-1-yl)dibenzo[b,d]thiophen-2-yl)-1,3-oxazinan-2-imine], 0.202 µM.
To `COCC#Cc1ccc2sc3ccc([C@]4(C)CC(=O)N(C)C(=N)N4)cc3c2c1` [Example 86, (S)-2-Amino-6-(8-(3-methoxyprop-1-yn-1-yl)dibenzo[b,d]thiophen-2-yl)-3,6-dimethyl-5,6-dihydropyrimidin-4(3H)-one] belongs 0.218 µM; to `CC#Cc1ccc2sc3ccc([C@]4(C)CC(=O)N(CC(F)F)C(=N)N4)cc3c2c1` [Example 105, (S)-3-(2,2-Difluoroethyl)-2-imino-6-methyl-6-(8-(prop-1-yn-1-yl)dibenzo [b,d]thiophen-2-yl)tetrahydropyrimidin-4(1H)-one], greater than 0.3 µM; to `CC#Cc1ccc2c(c1)-c1cc([C@]3(C)CC(=O)N(C)C(=N)N3)ccc1S2(=O)=O` [Example 79, (S)-2-Amino-6-(5,5-dioxido-8-(prop-1-yn-1-yl)dibenzo[b,d]thiophen-2-yl)-3,6-dimethyl-5,6-dihydropyrimidin-4(3H)-one], 0.087 µM.
To `CN1C(=N)N[C@](C)(c2ccc3sc4ccc(C#CCO)cc4c3c2)CC1=O` [Example 87, (S)-2-Amino-6-(8-(3-hydroxyprop-1-yn-1-yl)dibenzo[b,d]thiophen-2-yl)-3,6-dimethyl-5,6-dihydropyrimidin-4(3H)-one] belongs 0.017 µM.
For the compound `CC#Cc1ccc2c(c1)-c1cc([C@]3(C)CC(=O)N(C)C(=N)N3)ccc1C2(C)C` [Example 81, (S)-6-(9,9-Dimethyl-6-(prop-1-yn-1-yl)-9H-fluoren-3-yl)-2-imino-3,6-dimethyl-tetrahydropyrimidin-4(1H)-one], the IC50 was greater than 0.3 µM.
In the case of `CC#Cc1ccc2sc3ccc([C@]4(C)CS(=O)(=O)N(C)C(=N)N4)cc3c2c1` [Example 104, (R)-3-Imino-2,5-dimethyl-5-(8-(prop-1-yn-1-yl)dibenzo[b,d]thiophen-2-yl)-1,2,4-thiadiazinane 1,1-dioxide], the IC50 is greater than 0.3 µM.
Turning to `CN1C(=N)N[C@](C)(c2ccc3sc4ccc(Br)cc4c3c2)CC1=O` [Example 88, (S)-6-(8-Bromodibenzo[b,d]thiophen-2-yl)-2-imino-3,6-dimethyltetrahydro-pyrimidin-4(1H)-one], the IC50 was greater than 0.3 µM.
With `CN1C(=N)N[C@](C)(c2ccc3sc4ccc(C5CC5)cc4c3c2)CC1=O` [Example 90, (S)-6-(8-Cyclopropyldibenzo[b,d]thiophen-2-yl)-2-imino-3,6-dimethyl-tetrahydropyrimidin-4(1H)-one] the figure was 0.078 µM; with `CC#Cc1ccc2sc3ccc([C@]4(C)CC(=O)N(CCOC)C(=N)N4)cc3c2c1` [Example 106, (S)-2-Imino-3-(2-methoxyethyl)-6-methyl-6-(8-(prop-1-yn-1-yl)dibenzo[b,d]thiophen-2-yl)tetrahydropyrimidin-4(1H)-one], greater than 0.3 µM.
To `CC#Cc1ccc2c(c1)c1cc([C@]3(C)CC(=O)N(C)C(=N)N3)ccc1[s+]2[O-]` (stereo partly drawn) [Example 80, (6S)-2-Amino-3,6-dimethyl-6-(5-oxido-8-(prop-1-yn-1-yl)dibenzo[b,d]thiophen-2-yl)-5,6-dihydropyrimidin-4(3H)-one] belongs 0.048 µM; to `CC#Cc1ccc2c(c1)-c1cc([C@]3(C)CC(=O)N(C)C(=N)N3)ccc1C2(F)F` [Example 82, (S)-6-(9,9-Difluoro-6-(prop-1-yn-1-yl)-9H-fluoren-3-yl)-2-imino-3,6-dimethyltetrahydropyrimidin-4(1H)-one], greater than 0.3 µM; to `CN1C(=N)N[C@](C)(c2ccc3sc4ccc(C(F)(F)F)cc4c3c2)CC1=O` [Example 94, (S)-2-Amino-3,6-dimethyl-6-(8-(trifluoromethyl)dibenzo[b,d]thiophen-2-yl)-5,6-di hydropyrimidin-4(3H)-one], 0.081 µM.
As to `CN1C(=N)N[C@](C)(c2ccc3sc4ccc(C(N)=O)cc4c3c2)CC1=O` [Example 91, (S)-8-(2-Imino-1,4-dimethyl-6-oxohexahydropyrimidin-4-yl)dibenzo [b,d]thiophene-2-carboxamide], the IC50 is greater than 0.3 µM.
To `CN1C(=N)N[C@](C)(c2ccc3sc4ccc(C#N)cc4c3c2)CC1=O` [Example 85, (S)-8-(2-Imino-1,4-dimethyl-6-oxohexahydropyrimidin-4-yl) dibenzo[b,d]thiophene-2-carbonitrile] belongs greater than 0.3 µM.
With `CCN(CC)c1ccc2sc3ccc([C@]4(C)CC(=O)N(C)C(=N)N4)cc3c2c1` [Example 92, (S)-6-(8-(Diethylamino)dibenzo[b,d]thiophen-2-yl)-2-imino-3,6-dimethyl-tetrahydropyrimidin-4(1H)-one] the figure was greater than 0.3 µM.

The record behind these values is patent US10870635B2, “Compounds and their use as BACE1 inhibitors” (ALLGENESIS BIOTHERAPEUTICS, INC., priority 2015, dated 2020).
